In this data set the target is T1, OATP1B1 transporter protein (Homo sapiens, UniProt Q9Y6L6, V174A).
T1 construct: Hepatic uptake of elagolix involves the OATP1B1 transporter protein; from tissue; host or cells: liver of patients (in vivo)
T1 sequence (Q9Y6L6 1-691 V174A): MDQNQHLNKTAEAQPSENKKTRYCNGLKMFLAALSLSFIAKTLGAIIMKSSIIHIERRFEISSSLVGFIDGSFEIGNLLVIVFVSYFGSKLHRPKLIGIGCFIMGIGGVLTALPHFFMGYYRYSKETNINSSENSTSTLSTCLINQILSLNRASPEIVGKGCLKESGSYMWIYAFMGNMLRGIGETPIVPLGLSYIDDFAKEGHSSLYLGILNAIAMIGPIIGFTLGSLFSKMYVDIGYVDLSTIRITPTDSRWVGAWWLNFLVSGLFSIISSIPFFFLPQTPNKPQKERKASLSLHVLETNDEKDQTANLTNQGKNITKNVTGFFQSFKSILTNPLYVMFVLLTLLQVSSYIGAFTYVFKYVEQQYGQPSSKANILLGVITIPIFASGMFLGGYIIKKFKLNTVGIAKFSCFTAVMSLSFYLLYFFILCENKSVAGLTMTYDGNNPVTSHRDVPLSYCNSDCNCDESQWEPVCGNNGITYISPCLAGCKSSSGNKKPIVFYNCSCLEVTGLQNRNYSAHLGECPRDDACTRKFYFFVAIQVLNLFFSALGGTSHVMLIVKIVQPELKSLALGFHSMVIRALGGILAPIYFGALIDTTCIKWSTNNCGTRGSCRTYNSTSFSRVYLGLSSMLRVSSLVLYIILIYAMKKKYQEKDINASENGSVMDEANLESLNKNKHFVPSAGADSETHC
Briefly: Pharmacogenomics: elagolix plasma concentrations by SLCO1B1 521 genotype. The format is in vivo. The following applies: women with two reduced function alleles. The text has this:
Hepatic uptake of elagolix involves the OATP1B1 transporter protein. Higher plasma concentrations of elagolix have been observed in patients who have two reduced function alleles of the gene that encodes OATP1B1 (SLCO1B1 521T>C) (these patients are likely to have reduced hepatic uptake of elagolix; and thus, higher plasma elagolix concentrations). The frequency of this SLCO1B1 521 C/C genotype is generally less than 5% in most racial/ethnic groups. Women with this genotype are expected to have approximately 2-fold higher elagolix mean concentrations compared to women with normal transporter function (i.e., SLCO1B1 521T/T genotype). Adverse effects of elagolix have not been fully evaluated in subjects who have two reduced function alleles of the gene that encodes OATP1B1 (SLCO1B1 521T>C).

The values that follow come from patent US20220257597A1, “Methods of Administering Elagolix” (AbbVie Inc., priority 2021, published 2022).

In the case of `COc1cccc(-c2c(C)n(Cc3c(F)cccc3C(F)(F)F)c(=O)n(C[C@H](NCCCC(=O)O)c3ccccc3)c2=O)c1F` [elagolix, 4-((R)-2-[5-(2-fluoro-3-methoxy-phenyl)-3-(2-fluoro-6-trifluoromethyl-benzyl)-4-methyl-2,6-dioxo-3,6-dihydro-2H-pyrimidin-1-yl]-1-phenyl-ethylamino)-butyric acid], the “elagolix mean concentrations, SLCO1B1 521 C/C genotype compared to SLCO1B1 521T/T genotype” value is given as “approximately 2 fold”.
